Test results from US8541588B2, “Sulfonamide derivatives” (Pfizer Limited, priority 2009, dated 2013).

Biological target: T1, Nav1.7 (or SCN9A) channel; HEK cells stably transfected with hSCN9A (Homo sapiens, UniProt Q15858)
T1 construct: expressed in transfected cells
Assay: Nav1.7 block, PatchXpress 7000 automated whole-cell voltage clamp, estimated IC50 (EIC50)
Assay type: cell-based
Settings: estimated IC50, PatchXpress platform

[1] = hSCN9A HEK cells, Examples 283-814
[2] = hSCN9A HEK cells, Examples 815-1040
[3] = hSCN9A HEK cells held at V1/2 of inactivation

T1 sequence (Q15858 whole entry): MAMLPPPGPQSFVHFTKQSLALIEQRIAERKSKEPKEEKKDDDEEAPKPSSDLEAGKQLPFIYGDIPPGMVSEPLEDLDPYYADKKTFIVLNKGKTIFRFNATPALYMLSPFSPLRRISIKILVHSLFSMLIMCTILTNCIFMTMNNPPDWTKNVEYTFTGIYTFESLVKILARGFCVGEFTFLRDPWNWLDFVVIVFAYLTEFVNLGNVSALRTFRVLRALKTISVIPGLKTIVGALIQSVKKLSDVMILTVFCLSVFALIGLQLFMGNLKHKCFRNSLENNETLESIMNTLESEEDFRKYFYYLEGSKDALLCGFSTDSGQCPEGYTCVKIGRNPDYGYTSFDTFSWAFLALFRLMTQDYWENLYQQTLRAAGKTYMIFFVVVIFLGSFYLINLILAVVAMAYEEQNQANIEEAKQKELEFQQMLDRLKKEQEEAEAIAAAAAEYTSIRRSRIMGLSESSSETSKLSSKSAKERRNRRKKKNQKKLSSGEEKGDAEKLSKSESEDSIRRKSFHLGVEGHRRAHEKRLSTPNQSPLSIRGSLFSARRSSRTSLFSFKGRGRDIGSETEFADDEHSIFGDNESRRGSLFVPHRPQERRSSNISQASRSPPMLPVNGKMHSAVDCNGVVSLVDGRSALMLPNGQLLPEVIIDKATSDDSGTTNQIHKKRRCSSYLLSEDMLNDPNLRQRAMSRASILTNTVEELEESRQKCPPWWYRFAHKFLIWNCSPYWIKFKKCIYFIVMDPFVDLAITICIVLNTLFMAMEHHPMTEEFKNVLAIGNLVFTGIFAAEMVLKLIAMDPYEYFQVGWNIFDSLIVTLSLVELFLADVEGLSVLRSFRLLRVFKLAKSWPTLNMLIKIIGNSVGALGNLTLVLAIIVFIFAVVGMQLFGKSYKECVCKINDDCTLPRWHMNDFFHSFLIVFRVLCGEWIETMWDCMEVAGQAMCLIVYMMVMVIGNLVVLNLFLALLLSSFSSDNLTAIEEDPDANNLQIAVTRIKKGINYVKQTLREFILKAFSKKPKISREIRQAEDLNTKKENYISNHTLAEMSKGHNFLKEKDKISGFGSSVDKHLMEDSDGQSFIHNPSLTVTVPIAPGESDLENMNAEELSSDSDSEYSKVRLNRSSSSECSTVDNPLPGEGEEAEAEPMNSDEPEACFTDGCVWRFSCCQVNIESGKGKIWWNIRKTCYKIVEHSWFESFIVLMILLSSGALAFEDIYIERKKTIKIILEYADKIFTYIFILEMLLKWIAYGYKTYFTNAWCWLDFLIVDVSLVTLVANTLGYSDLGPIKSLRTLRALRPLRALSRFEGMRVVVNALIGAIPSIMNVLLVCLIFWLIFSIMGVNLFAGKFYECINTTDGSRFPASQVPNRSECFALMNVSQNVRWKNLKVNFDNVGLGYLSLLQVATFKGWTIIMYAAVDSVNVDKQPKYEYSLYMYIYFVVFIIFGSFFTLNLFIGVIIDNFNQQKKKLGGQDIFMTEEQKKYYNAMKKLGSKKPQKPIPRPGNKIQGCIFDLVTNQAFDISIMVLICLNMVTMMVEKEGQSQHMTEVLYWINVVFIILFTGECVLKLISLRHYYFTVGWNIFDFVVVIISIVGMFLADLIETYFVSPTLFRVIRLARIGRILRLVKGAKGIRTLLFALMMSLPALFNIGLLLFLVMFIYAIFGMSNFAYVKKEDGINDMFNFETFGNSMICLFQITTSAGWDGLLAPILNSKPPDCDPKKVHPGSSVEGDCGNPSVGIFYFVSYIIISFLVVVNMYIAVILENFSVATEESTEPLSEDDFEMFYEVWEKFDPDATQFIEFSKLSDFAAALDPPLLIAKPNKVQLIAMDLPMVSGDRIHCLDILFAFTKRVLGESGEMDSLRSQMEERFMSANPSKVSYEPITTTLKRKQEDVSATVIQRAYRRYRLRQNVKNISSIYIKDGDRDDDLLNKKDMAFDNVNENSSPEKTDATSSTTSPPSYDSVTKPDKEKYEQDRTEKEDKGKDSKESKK

IC50 [1]	IC50 [2]	SMILES	further results
–	7.4 nM	O=C(c1cccc(-c2cc(Cl)ccc2Oc2cc(F)c(S(=O)(=O)Nc3ncns3)cc2Cl)c1)N1CCC1 [Example 823, 4-{[3′-(azetidin-1-ylcarbonyl)-5-chlorobiphenyl-2-yl]oxy}-5-chloro-2-fluoro-N-1,2,4-thiadiazol-5-ylbenzenesulfonamide]	–
–	>10000 nM	Cn1nccc1NS(=O)(=O)c1ccc(Oc2ccc(Cl)cc2-c2ccnn2C)c(C#N)c1 [Example 894, 4-[4-chloro-2-(1-methyl-1H-pyrazol-5-yl)phenoxy]-3-cyano-N-(1-methyl-1H-pyrazol-5-yl)benzenesulfonamide]	–
3400 nM	–	Cc1cn(C)nc1-c1ccc(Oc2ccc(S(=O)(=O)Nc3nccs3)cc2C#N)cc1 [Example 470, 3-cyano-4-[4-(1,4-dimethyl-1H-pyrazol-3-yl)phenoxy]-N-1,3-thiazol-2-ylbenzenesulfonamide]	–
78 nM	–	O=S(=O)(Nc1ccncn1)c1cc(Cl)c(Oc2ccc(Cl)cc2C2CCNCC2)cc1F [Example 560, 5-chloro-4-(4-chloro-2-piperidin-4-ylphenoxy)-2-fluoro-N-pyrimidin-4-ylbenzenesulfonamide]	–
480 nM	–	N#Cc1cc(S(=O)(=O)Nc2nccs2)ccc1Oc1ccc(Cl)cc1-c1cnn[nH]1 [Example 694, 4-[4-chloro-2-(1H-1,2,3-triazol-5-yl)phenoxy]-3-cyano-N-1,3-thiazol-2-ylbenzenesulfonamide]	–

Continued, compound first:

SMILES	IC50 [1]	IC50 [2]	further results
N#Cc1cc(S(=O)(=O)Nc2cscn2)ccc1Oc1ccc(Cl)cc1-c1ccnn1C(F)F [Example 402, 4-{4-chloro-2-[1-(difluoromethyl)-1H-pyrazol-5-yl]phenoxy}-3-cyano-N-1,3-thiazol-4-ylbenzenesulfonamide]	250 nM	–	–
N#Cc1cc(S(=O)(=O)Nc2ncc(Cl)s2)ccc1Oc1ccc(Cl)cc1-c1ccnc(CO)c1 [Example 586, 4-{4-Chloro-2-[2-(hydroxymethyl)pyridin-4-yl]phenoxy}-N-(5-chloro-1,3-thiazol-2-yl)-3-cyanobenzenesulfonamide]	140 nM	–	–
O=S(=O)(Nc1ncns1)c1cc(F)c(Oc2ccc(C(F)(F)F)cc2-c2cccnn2)cc1F [Example 920, 2,5-difluoro-4-[2-pyridazin-3-yl-4-(trifluoromethyl)phenoxy]-N-1,2,4-thiadiazol-5-ylbenzenesulfonamide]	–	310 nM	–
N#Cc1cc(S(=O)(=O)Nc2nccs2)ccc1Oc1ccc(F)cc1-c1ccc(CCO)cc1 [Example 201, 3-cyano-4-{[5-fluoro-4′-(2-hydroxyethyl)biphenyl-2-yl]oxy}-N-1,3-thiazol-2-ylbenzenesulfonamide]	–	–	IC50 [3]: 420 nM
N#Cc1cc(S(=O)(=O)Nc2nccs2)ccc1Oc1cc(C2CC2)nn1-c1cc(F)ccc1F [Example 195, 3-Cyano-4-[5-cyclopropyl-2-(2,5-difluoro-phenyl)-2H-pyrazol-3-yloxy]-N-thiazol-2-yl-benzenesulfonamide]	–	–	IC50 [3]: 1080 nM
Cn1nccc1-c1cc(Cl)ccc1Oc1ccc(S(=O)(=O)Nc2cscn2)c(F)c1 [Example 681, 4-[4-chloro-2-(1-methyl-1H-pyrazol-5-yl)phenoxy]-2-fluoro-N-1,3-thiazol-4-ylbenzenesulfonamide]	1200 nM	–	–
N#Cc1cc(S(=O)(=O)Nc2ncc(F)s2)ccc1Oc1ccc(Cl)c(Cn2ccnc2)c1 [Example 530, 4-[4-chloro-3-(1H-imidazol-1-ylmethyl)phenoxy]-3-cyano-N-(5-fluoro-1,3-thiazol-2-yl)benzenesulfonamide]	230 nM	–	–
N#Cc1cc(S(=O)(=O)Nc2ncns2)ccc1Oc1cc(C(F)(F)F)c(F)cc1-c1ccnnc1 [Example 948, 3-cyano-4-[4-fluoro-2-pyridazin-4-yl-5-(trifluoromethyl)phenoxy]-N-1,2,4-thiadiazol-5-ylbenzenesulfonamide]	–	11 nM	–
Nc1cc(-c2cc(F)ccc2Oc2cc(F)c(S(=O)(=O)Nc3ncccn3)cc2Cl)ccn1 [Example 949, 4-[2-(2-aminopyridin-4-yl)-4-fluorophenoxy]-5-chloro-2-fluoro-N-pyrimidin-2-ylbenzenesulfonamide]	–	87 nM	–
